Series [1] relates to HBeAg (surrogate marker for cccDNA) in HepDES19 cells. The series is described as follows: Engineered HepDES19 primary screen assay (HBeAg ELISA). The series is classed as cell-based, HBV. The method, boiled down: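 HepDES19 cells were induced by Tet withdrawal for 8 days, then treated with half-log compound dilutions (1% DMSO final) for 5 days at 37 °C. HBeAg was measured by ELISA as the cccDNA surrogate, viability by CCK-8, and IC50 from a 4-parameter logistic fit.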
For orientation: An ELISA detects its analyte on a solid surface through an enzyme-linked reagent.

In series [2] the test system is HBsAg in HBV-infected PHH. Kind of series: Cryopreserved primary human hepatocytes (PHH) HBV infection assay, extracellular HBsAg (CLIA). The class given is cell-based. To be noted: Hepatitis B virus, Hepatocyte, 216 h, read-out: HBsAg IC50, Cryopreserved PHH infected with HBV, 9 days post-compound treatment, extracellular HBsAg. As for the experimental part: This assay is used to confirm the anti-HBV effect of the compounds in HBV PHH infection assay. Cryopreserved PHH (BioreclamationIVT, Lot YJM) was thawed at 37° C. and gently transferred into pre-warmed InVitroGRO HT medium (BioreclamationIVT, Cat. S03317). The mixture was centrifuged at 70 relative centrifugal force (RCF) for 3 minutes at RT, and the supernatant was discarded. Pre-warmed InVitroGRO CP medium (BioreclamationIVT, Cat #S03316) was added to the cell pellet to gently re-suspend cells. The cells were seeded at the density of 5.8×10^4 cells per well to collagen I coated 96-well plate (Gibco, Cat. A1142803) with the InVitroGRO CP medium. All plates were incubated at 37° C. with 5% CO2 and 85% humidity.
At 20 hours after plating, the medium was changed to PHH culture medium (Dulbecco's Modified Eagle Medium (DMEM)/F12 (1:1) (Gibco, Cat. 11320-033), 10% fetal bovine semm (Gibco Cat. 10099141), 100 U/mL penicillin, 100 μg/mL streptomycin (Gibco, Cat. 151401-122), […] (Invitrogen Cat. PHG0311L), 20 ng/mL dexamethasone (Sigma, Cat. D4902) and 250 ng/mL human recombinant insulin (Gibco, Cat. 12585-014)). And the cells were incubated at 37° C. with 5% CO2 and 85% humidity for 4 hours. The medium was then changed to pre-warmed PHH culture medium containing 4% polyethylene glycol (PEG) MW8000 (Sigma, Cat. P1458-50 ML) and 1% DMSO (Sigma, Cat. D2650). 5.8×10^6 genomic equivalents of HBV were added into the medium.
At 24 hours post-infection, the cells were gently washed with PBS and refreshed with PHH culture medium supplemented with 1% DMSO, and 0.25 mg/mL Matrix gel (Corning, Cat. 356237) at 200 μL per well. All plates were immediately placed in at 37° C. CO2 incubator.
24 hours later, serial dilutions of compounds made with DMSO were further diluted with the same culture medium (PHH culture medium supplemented with 1% DMSO and 0.25 mg/mL Matrix gel as described above) before they were added to the cells to reach desired final compound concentrations and 1% DMSO concentration. The medium containing the compounds were refreshed every three days.
At 9 days post-compound treatment, extracellular HBsAg level were measured with Chemiluminescence Immuno Assay (CLIA) kit (Autobio, HBsAg Quantitative CLIA). Extracellular HBV DNA was extracted by MagNA Pure 96 system (Roche) and then determined by quantitative PCR with the following primers and probe: […]
HBsAg IC50 and HBV DNA IC50 values were derived from the dose-response curve using 4 parameter logistic curve fit method. The compounds of formula (I) have HBsAg IC50<20 μM, particularly <1 μM; and HBV DNA IC50<50 μM.

A short description of series [3]: Human microsome stability assay. The class given is in vitro ADME. To be noted: human liver microsomes, 1 μM test compound, 0.5 mg/mL microsomal protein, 37° C., pH 7.4, 0-30 minutes. In a few lines:
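Compound (1 μM) incubated at 37 °C with human liver microsomes (0.5 mg/mL protein) in 100 mM potassium phosphate, pH 7.4, after 10 min preincubation; started with NADPH regenerating system. Sampled at 0–30 min, quenched with cold ACN; remaining parent quantified by LC-MS/MS, with no-NADPH controls.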

Setting [4] is: Hepatitis B virus, HepDES19, 120 h, read-out: IC50 (HBeAg level, HepDES19 primary screen assay), HepDES19 cells, 5 days compound incubation, HBeAg ELISA.

pIC50: −log10 of the molar value. Read-outs that look alike come from different tables or passages of the source.

As a reminder, the pIC50 is −log10 of the IC50, conventionally taken in molar units. Regarding `O=C(O)CCOc1cc(C(F)(F)F)ccc1-c1cc(=O)c2cccc(Cl)c2o1` [Example A001, 3-[2-(8-chloro-4-oxo-chromen-2-yl)-5-(trifluoromethyl)phenoxy]propanoic acid], the pIC50 in series [1] (setting [4]) is 5.79; in series [2], 5.92. The “Clearance of Human microsome” value in series [3] is reported as 10.0 mL/min/kg.
In the same order, the values of `O=C(O)CCOc1cc(Br)ccc1-c1cc(=O)c2cccc(Cl)c2o1` [Example A004, 3-[5-bromo-2-(8-chloro-4-oxo-chromen-2-yl)phenoxy]propanoic acid] are 6.43, 5.18 and 6.15 mL/min/kg.
For `Cc1cc(-c2cc(=O)c3cccc(Cl)c3o2)c(OCCC(=O)O)cc1Cl` [Example A005, 3-[5-chloro-2-(8-chloro-4-oxo-chromen-2-yl)-4-methyl-phenoxy]propanoic acid], the results for the pIC50 in series [1] (setting [4]) and in series [2] were 5.86 and 6.26, respectively. For the same compound, the “Clearance of Human microsome” value in series [3] turned out to be 6.66 mL/min/kg.
In the same order, the values of `COc1cc(-c2cc(=O)c3cccc(Cl)c3o2)c(OCCC(=O)O)cc1Br` [Example A007, 3-[5-bromo-2-(8-chloro-4-oxo-chromen-2-yl)-4-methoxy-phenoxy]propanoic acid] are 5.50, 5.56 and 6.15 mL/min/kg.
In the same order, the values of `COc1cc(-c2cc(=O)c3cccc(Cl)c3o2)c(OCCC(=O)O)cc1Cl` [Example A008, 3-[5-chloro-2-(8-chloro-4-oxo-chromen-2-yl)-4-methoxy-phenoxy]propanoic acid] are 5.65, 6.02 and 6.15 mL/min/kg.
As to `Cc1cc(-c2cc(=O)c3cccc(Cl)c3o2)c(O[C@H]2C[C@H](C(=O)O)C2)cc1Br` [Example B013-B, Trans-3-[5-bromo-2-(8-chloro-4-oxo-chromen-2-yl)-4-methyl-phenoxy]cyclobutanecarboxylic acid], the negative logarithm of the IC50 (pIC50) is 5.61 in series [1] (setting [4]) and 5.99 in series [2].
On the same counts, the results for `COc1cc(O[C@H]2C[C@H](C(=O)O)C2)c(-c2cc(=O)c3cccc(Cl)c3o2)cc1C` [Example B017, 3-[2-(8-chloro-4-oxo-chromen-2-yl)-5-methoxy-4-methyl-phenoxy]cyclobutanecarboxylic acid] are 5.31 and 5.31.
On the same counts, the results for `Cc1ccc(-c2cc(=O)c3cccc(Cl)c3o2)c(O[C@H]2C[C@H](C(=O)O)C2)c1` [Example B018-B, Trans-3-[2-(8-chloro-4-oxo-chromen-2-yl)-5-methyl-phenoxy]cyclobutanecarboxylic acid] are 6.26 and 5.33.
Turning to `CCc1ccc(-c2cc(=O)c3cccc(Cl)c3o2)c(O[C@H]2C[C@@H](C(=O)O)C2)c1` [Example B019-A, Cis-3-[2-(8-chloro-4-oxo-chromen-2-yl)-5-ethyl-phenoxy]cyclobutanecarboxylic acid], the pIC50 in series [1] (setting [4]) is 5.99; in series [2], 5.40.
On to `O=c1cc(-c2ccc(Br)cc2OC[C@H]2C[C@H](C(=O)O)C2)oc2c(Cl)cccc12` [Example B025-B, Trans-3-[[5-bromo-2-(8-chloro-4-oxo-chromen-2-yl)phenoxy]methyl]cyclobutanecarboxylic acid], for which the pIC50 was 5.64 in series [1] (read-out: IC50 (HBeAg level, HepDES19 primary screen assay), HepDES19 cells, 5 days compound incubation, HBeAg ELISA) and 5.51 in series [2].
Turning to `COc1cc(O[C@H]2C[C@H](C(=O)NS(C)(=O)=O)C2)c(-c2cc(=O)c3cccc(Cl)c3o2)cc1Br` [Example B055-B, Trans-3-[4-bromo-2-(8-chloro-4-oxo-chromen-2-yl)-5-methoxy-phenoxy]-N-methylsulfonyl-cyclobutanecarboxamide], the pIC50 in series [1] (setting [4]) is 5.41; in series [2], 5.40.
For the compound `N#CC1CC(Oc2cc(C(F)(F)F)ccc2-c2cc(=O)c3cccc(Cl)c3o2)C1` (centres unmarked) [Example B070, 3-[2-(8-chloro-4-oxo-chromen-2-yl)-5-(trifluoromethyl)phenoxy]cyclobutanecarbonitrile], the figures for the pIC50 in series [1] (setting [4]) and in series [2] were 6.36 and 6.10, respectively.
On the same counts, the results for `CN(C)S(=O)(=O)CCCOc1cc(Br)ccc1-c1cc(=O)c2cccc(Cl)c2o1` [Example B071, 3-[5-bromo-2-(8-chloro-4-oxo-chromen-2-yl)phenoxy]-N,N-dimethyl-propane-1-sulfonamide] are 6.01 and 5.31.
On the same counts, the results for `O=C(O)COCCCOc1cc(Br)ccc1-c1cc(=O)c2cccc(Cl)c2o1` [Example C010, 2-[3-[5-bromo-2-(8-chloro-4-oxo-chromen-2-yl)phenoxy]propoxy]acetic acid] are 6.16 and 5.03.
In the same order, the values of `Cc1cc(-c2cc(=O)c3cccc(Cl)c3o2)c(OCCO[C@H]2C[C@@H](C(=O)O)C2)cc1Br` [Example C031-A, Cis-3-[2-[5-bromo-2-(8-chloro-4-oxo-chromen-2-yl)-4-methyl-phenoxy]ethoxy]cyclobutanecarboxylic acid] are 5.21 and 5.94.
As for `COc1cc(OCCO[C@H]2C[C@@H](C(=O)O)C2)c(-c2cc(=O)c3cccc(Cl)c3o2)cc1C` [Example C041-A, Cis-3-[2-[2-(8-chloro-4-oxo-chromen-2-yl)-5-methoxy-4-methyl-phenoxy]ethoxy]cyclobutanecarboxylic acid], the pIC50 in series [1] (setting [4]) was 5.11; in series [2], 5.23.
In the same order, the values of `O=c1cc(-c2ccc(Br)cc2OCCO[C@H]2C[C@@H](C(=O)O)C2)oc2c(Cl)ccc(C(F)(F)F)c12` [Example C049-A, Cis-3-[2-[5-bromo-2-[8-chloro-4-oxo-5-(trifluoromethyl)chromen-2-yl]phenoxy]ethoxy]cyclobutanecarboxylic acid] are 7.11 and 5.14.
Consider `Cc1cc(-c2cc(=O)c3cccc(Cl)c3o2)c(OCCO[C@H]2C[C@@H](C(=O)O)C2)cc1Cl` [Example C055-A, Cis-3-[2-[5-chloro-2-(8-chloro-4-oxo-chromen-2-yl)-4-methyl-phenoxy]ethoxy]cyclobutanecarboxylic acid], for which the results for the pIC50 in series [1] (setting [4]) and in series [2] were 5.39 and 5.03, respectively.
Turning to `O=C(O)C1CC(OCCOc2cc(N3CCOC3=O)ccc2-c2cc(=O)c3cccc(Cl)c3o2)C1` (centres unmarked) [Example C062, 3-[2-[2-(8-chloro-4-oxo-chromen-2-yl)-5-(2-oxooxazolidin-3-yl)phenoxy]ethoxy]cyclobutanecarboxylic acid], the pIC50 was 5.82 in series [1] (setting [4]) and 5.17 in series [2].
In the same order, the values of `O=c1cc(-c2ccc(N3CCOCC3)cc2OCCO[C@H]2C[C@H](C(=O)O)C2)oc2c(Cl)cccc12` [Example C067-B, trans-3-[2-[2-(8-chloro-4-oxo-chromen-2-yl)-5-morpholino-phenoxy]ethoxy]cyclobutanecarboxylic acid] are 5.08 and 5.32.
In the same order, the values of `NC(=O)COCC(O)COc1cc(Br)ccc1-c1cc(=O)c2cccc(Cl)c2o1` (centres unmarked) [Example C114, 2-[3-[5-bromo-2-(8-chloro-4-oxo-chromen-2-yl)phenoxy]-2-hydroxy-propoxy]acetamide] are 5.91 and 5.04.

These data come from patent publication US11708344B2, “Flavone derivatives for the treatment and prophylaxis of hepatitis B virus disease” (Hoffmann-La Roche Inc., priority 2018, dated 2023).
